Test results taken from article PMC10599993, “The PTPN2/PTPN1 inhibitor ABBV-CLS-484 unleashes potent anti-tumour immunity” (Nature, 2023).

Assays:
[1] = target: T1, PTPN1 (Homo sapiens, UniProt P18031); test: mobility shift enzyme assay with labelled insulin receptor phosphopeptide; format: biochemical
T1 construct: full-length recombinant

[2] = target: T2, PTPN2 (Homo sapiens, UniProt P17706); test: as above; format: biochemical
T2 construct: full-length recombinant
T2 sequence (P17706 whole entry): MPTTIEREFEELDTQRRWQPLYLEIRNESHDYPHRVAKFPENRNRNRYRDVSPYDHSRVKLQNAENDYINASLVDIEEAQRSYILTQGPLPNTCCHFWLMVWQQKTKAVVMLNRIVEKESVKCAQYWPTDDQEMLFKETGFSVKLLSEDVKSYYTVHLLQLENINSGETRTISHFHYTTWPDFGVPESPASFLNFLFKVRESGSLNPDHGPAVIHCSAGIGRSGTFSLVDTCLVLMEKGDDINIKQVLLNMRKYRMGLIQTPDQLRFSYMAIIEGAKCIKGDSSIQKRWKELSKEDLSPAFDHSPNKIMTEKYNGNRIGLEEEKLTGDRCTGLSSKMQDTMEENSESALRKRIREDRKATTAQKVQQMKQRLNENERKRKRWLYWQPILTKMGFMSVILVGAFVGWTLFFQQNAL

T1 sequence (P18031 whole entry): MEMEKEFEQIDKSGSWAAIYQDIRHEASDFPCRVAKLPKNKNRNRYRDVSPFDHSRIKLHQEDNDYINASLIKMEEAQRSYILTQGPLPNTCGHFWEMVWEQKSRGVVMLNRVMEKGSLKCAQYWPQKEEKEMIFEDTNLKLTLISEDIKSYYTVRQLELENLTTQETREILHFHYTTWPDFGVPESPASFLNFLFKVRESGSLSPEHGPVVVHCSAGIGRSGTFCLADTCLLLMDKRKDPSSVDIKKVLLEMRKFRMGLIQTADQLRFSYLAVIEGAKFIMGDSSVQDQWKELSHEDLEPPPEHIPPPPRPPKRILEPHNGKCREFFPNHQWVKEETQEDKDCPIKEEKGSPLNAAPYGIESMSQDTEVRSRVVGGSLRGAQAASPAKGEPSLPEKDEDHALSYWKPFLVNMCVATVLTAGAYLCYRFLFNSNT

IC50 [1]: 2.8 nM
IC50 [2]: 3.9 nM
Compound: O=C1CN(c2c(O)cc3ccc(NCC4CC4)cc3c2F)S(=O)(=O)N1 [A-650]
